Experimental findings from ChEMBL document CHEMBL1154435, “Synthesis and anti-inflammatory activity evaluation of unsymmetrical selenides” (Eur J Med Chem, 2008) are described below.

Series [1] relates to Rattus norvegicus. The series is described as follows: Antiinflammatory activity against cotton pellets-induced inflammation in Wistar rat assessed as final weight of granuloma at 10 mg/kg, po after 7 days. Format: functional.
Series [2] concerns Rattus norvegicus. The series is described as follows: Antiinflammatory activity against cotton pellets-induced inflammation in Wistar rat assessed as wet weight of granuloma at 10 mg/kg, po after 7 days. Format: functional.
In series [3] the test system is Rattus norvegicus. In words: Antiinflammatory activity against cotton pellets-induced inflammation in Wistar rat assessed as dry weight of granuloma at 10 mg/kg, po after 7 days. It is filed as functional.
Series [4] in a line: Acute toxicity in po dosed mouse assessed as death within 7 days. It is filed as organism-based. The following applies: in vivo.
The subject of series [5] is Mus musculus. In words: Safety ratio for toxicity to antiinflammatory activity in po dosed mouse. Format: functional.
Series [6] concerns Mus musculus. In words: Acute toxicity in mouse assessed as occurrence of ataxia and respiratory problems at 600 mg/kg, po within 7 days. It is filed as organism-based. The arrangement: dose 600 mg/kg, route oral. The following applies: in vivo, 168 h.
Series [7] concerns Rattus norvegicus. In words: Antiinflammatory activity against cotton pellets-induced inflammation in Wistar rat assessed as final weight of granuloma at 5 mg/kg, po after 7 days. It is filed as functional.
Series [8] has as its system Rattus norvegicus. In words: Antiinflammatory activity against cotton pellets-induced inflammation in Wistar rat assessed as dry weight of granuloma at 5 mg/kg, po after 7 days. It is filed as functional.
Series [9] relates to Rattus norvegicus. The series is described as follows: Antiinflammatory activity against cotton pellets-induced inflammation in Wistar rat assessed as wet weight of granuloma at 5 mg/kg, po after 7 days. It is filed as functional.

Bounds are passed on as bounds.

The LD50 is the dose expected to kill half of the subjects tested. Take `O=C(O)C[Se]c1ccccc1C(=O)O`: the Activity was found to be 33.8 mg with Rattus norvegicus [1], 0.378 g with Rattus norvegicus [2] and 0.085 g with Rattus norvegicus [3]. Besides, the LD50 at 168 h in series [4] was above 600 mg/kg. Also, in the series on Mus musculus [5], the Ratio result is on record as “>=60”.
Regarding `C#CC[Se]c1ccccc1C(=O)O`, the Activity was 30.9 mg in the series on Rattus norvegicus [1], 0.353 g in the series with Rattus norvegicus [2], “Toxic” with Mus musculus [6] and 0.081 g in the series with Rattus norvegicus [3]. In addition, in series [4], the LD50 at 168 h turned out to be 600 mg/kg. Also, the Ratio entry in the series with Mus musculus [5] is listed as “>=60”.
For the compound `C#CC[Se]c1ccc(C(=O)NC)cc1`, the Activity in the series on Rattus norvegicus [1] turned out to be 41.3 mg; in the series on Rattus norvegicus [2], 0.447 g; with Rattus norvegicus [3], 0.096 g. For the same compound, the LD50 at 168 h in series [4] is above 600 mg/kg. For the same compound, the Ratio result in the series with Mus musculus [5] is “>=60”.
`CNC(=O)c1ccc([Se]C=C(C)C)cc1`: the Activity with Rattus norvegicus [1] is 33.2 mg; with Rattus norvegicus [2], 0.369 g; in the series with Mus musculus [6], “Toxic”; in the series with Rattus norvegicus [3] it was 0.087 g. In series [4], the 50% lethal dose (LD50) at 168 h stood at 600 mg/kg. The Ratio result in the series on Mus musculus [5] is “>=60”.
Regarding `CC(C)=C[Se]c1ccccc1C(=O)O`, the Activity in the series on Rattus norvegicus [1] was 32.8 mg; with Rattus norvegicus [2], 0.406 g; in the series with Rattus norvegicus [3], 0.084 g. Moreover, in [4], the median lethal dose (LD50) at 168 h is above 600 mg/kg. The Ratio result in the series with Mus musculus [5] was “>=60”.
As to `CNC(=O)c1ccc([Se]Cc2ccccc2)cc1`, the Activity was found to be 35.7 mg with Rattus norvegicus [1], 0.414 g in the series on Rattus norvegicus [2] and 0.089 g in the series on Rattus norvegicus [3]. Besides, in series [4], the LD50 at 168 h was above 600 mg/kg. Besides, the Ratio result in the series with Mus musculus [5] is on record as “>=60”.
For `COc1ccc2c(c1)c(CC(=O)O)c(C)n2C(=O)c1ccc(Cl)cc1` [INDOMETHACIN], the figures for the Activity in the series with Rattus norvegicus [7], with Rattus norvegicus [8] and in the series with Rattus norvegicus [9] were 21.8 mg, 0.072 g and 0.307 g, respectively. Moreover, the median lethal dose (LD50) at 168 h in series [4] was determined as 33 mg/kg. Besides, in the series on Mus musculus [5], the Ratio worked out at 3.3.
